According to patent US8324345B2, “HLA-binding peptide, precursor thereof, DNA fragment and recombinant vector encoding the same” (priority 2006, dated 2012):
No end group written: not given here.

Columns and labels:
[1] = biological target: HLA-A2 molecule (the product of HLA-A*0201 gene) (Homo sapiens, UniProt P04439, D140Y/D185E/D98H/E176V/E277Q/G131W/G231S/I119V/I121R/I166T/I218V/L300P/L318F/N151K/N90K/P208A/P217A/Q86G/Q94H/R138H/R169H/T345S); experiment: Binding experiment of the peptides to an HLA-A0201 molecule (JY cells, flow cytometry)
Protocol: After neutralization, a reassemble experiment was performed.
The above JY cells and purified β 2 m were added to a serial dilution of the peptide whose binding affinity was to be measured. Then, the mixture was incubated on ice for 4 hours.

[2] = biological target: HLA-A2 molecule (the product of HLA-A*0206 gene) (Homo sapiens, UniProt P04439, D140Y/D185E/D98H/E176V/E277Q/F33Y/G131W/G231S/I119V/I121R/I166T/I218V/L300P/L318F/N151K/N90K/P208A/P217A/Q86G/Q94H/R138H/R169H/T345S); experiment: cell-based
Protocol: The peptides' binding affinity to an HLA-A2 molecule (the product of HLA-A*0206 gene) was measured by using RA2.6 cells (a newly prepared cell line at Kochi University) that express the HLA-A*0206 gene, which were created by expressing cDNA of the HLA-A*0206 gene in RAMS cells, the mouse TAP peptide transporter deficient cells.
First, the RA2.6 cells were cultured overnight at 26° C. to accumulate HLA-A0206 molecules that were unbound to peptides on the cell surface. A peptide serial dilution was added thereto for binding at room temperature for 30 minutes.
Subsequently, the mixture was cultured for 3.5 hours at 37° C. to denature the empty HLA-A0206 molecules that were unbound to peptides. As a result, the HLA-A0206 molecules lost their steric structure.
Either the fluorescent labeled monoclonal antibody 17A10 or 17A12, which specifically recognizes a peptide-bound HLA-A0206 molecule, was added thereto. The mixture was incubated on ice for 20 minutes, and the cells were stained.
Subsequently, the amount of fluorescence per cell was measured by using a flow cytometer. The dissociation constant, Kd value, was calculated by using the method published in the research article (Udaka et al., Immunogenetics, 51, 816-828, 2000).

[3] = test system: human HLA-A type molecule; experiment: Binding experiments, summary statement for HLA-A type molecules; conditions: summary of the binding experiments
Protocol: The peptides' binding affinity to an HLA-A24 molecule (the product of HLA-A*2402 gene) was measured by using C1R-A24 cells that express the HLA-A*2402 gene (produced by and provided with permission of Professor Masafumi Takiguchi, Kumamoto University).

Sequence | Kd [1] [µM] | Kd [2] [µM] | binding affinity to a human HLA-A type molecule (in words) [3]
IVLEHGSCV [compound 27] | 1.83 |  | 
ILIRTGLLV [compound 33] | 0.298 |  | 
SLRPQPTEL [compound 34] | 8.91 |  | 
SVIEKMEAL [compound 48] |  | 0.422 | 
LLFKTENGV [compound 28] | 0.0335 |  | 
HVLGRLITV [compound 45] |  | 0.557 | 
ELPETLETL [compound 40] | 0.474 |  | 
QILEENVEV [compound 50] |  | 2.48 | 
PLNEAIMAV [compound 29] | 0.32 |  | 
FLIDGPETA [compound 35] | 0.883 |  | 
LVISGLFPV [compound 41] |  | 0.245 | 
IVLEHGSCV [compound 46] |  | 0.952 | 
FQPESPSKL [compound 36] | 0.487 |  | 
NLVRLQSGV [compound 30] | 20.1 |  | 
LALLAAFKV [compound 43] |  | 0.341 | 
YVVIAILTV [compound 47] |  | 1.38 | 
ALHQVFGAI [compound 38] | 0.17 |  | 
YMPSVIEKM [compound 39] | 0.266 |  | 
ALVAFLRFL [SEQ ID NO 21] |  | 1.08 | experimentally confirmed to have binding affinity
